Experimental data taken from patent publication US20120196892A1, “NOVEL CASPASE-2 INHIBITORS” (CHIESI FARMACEUTICI S.p.A., priority 2011, published 2012).

Columns and labels:
[1] = target: T1, human recombinant caspase-2 (Homo sapiens, UniProt P42575); conditions: disclosed in WO 2005/105829; cited from earlier work
T1 construct: purchased BIOMOL, Plymouth, Pa., USA
T1 sequence (P42575 170-325 limits assumed): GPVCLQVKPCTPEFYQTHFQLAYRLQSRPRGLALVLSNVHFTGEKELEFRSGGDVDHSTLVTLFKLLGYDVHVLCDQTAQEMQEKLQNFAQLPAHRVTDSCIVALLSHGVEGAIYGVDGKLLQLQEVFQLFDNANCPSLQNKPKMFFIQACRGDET
T1 sequence (P42575 348-452 limits assumed): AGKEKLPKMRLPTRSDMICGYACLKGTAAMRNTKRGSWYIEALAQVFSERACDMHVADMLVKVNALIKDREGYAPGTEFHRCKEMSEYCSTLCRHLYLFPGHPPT

[2] = target: T1, human recombinant caspase-2; test: in vitro caspase-2 inhibition activity (Ac-VDVAD-AMC fluorogenic substrate cleavage); type: biochemical; conditions: for IC50: 30 minutes pre-incubation with inhibitors 0.001 to 2 μM, 200 μM Ac-VDVAD-AMC, read after 2 hours at 37° C., mean of three independent runs, read-out: IC50 (concentration which inhibits 50% of caspase activity); for caspase-2 inhibition activity (in words), comparative compounds: compounds used for comparative purposes, structurally related to TRP601
Procedure: The in vitro caspase-2 inhibition activity of 2-quinolinylcarbonyl-(S)-Valinyl-(S)-Aspartyl (methyl ester)-(S)-Valinyl-(S)-Alanyl-(R,S)-Aspartyl (methyl ester) 2,3,5,6-tetrafluorophenyl ester (TRP 701) in comparison to other compounds was evaluated according to the following protocol. Samples of human recombinant caspase-2 (25-50U, BIOMOL, Plymouth, Pa., USA) were pre-incubated for 30 minutes with inhibitors (0.001 to 2 μM) in final 100 μl final assay buffer (50 mM HEPES, pH 7.4, 100 mM NaCI, 0.1% CHAPS, 10 mM DTT, 1 mM EDTA, 10% glycerol) and then mixed with 200 μM of the fluorogenic caspase substrates (BIOMOL) Ac-VDVAD-AMC. An IC50 value corresponding to the concentration which inhibis 50% of caspase activity was determined from the dose-response sigmoid curve using the steady-state fluorescence approach. The cleavage of AMC-based substrate by human recombinant caspase-2 was measured after 2 hours at 37° C. on a fluorescence microplate reader by monitoring emission at 510 nm upon excitation at 405 nm.
Curves are the mean of three independent runs.

| caspase-2 selectivity (in words) [2] | caspase-2 inhibition activity (in words), comparative compounds [2] | Compound | caspase-2 selectivity (in words), background statement [1] | IC50 [2] |
| --- | --- | --- | --- | --- |
|  |  | COC(=O)CC(NC(=O)[C@H](C)NC(=O)[C@@H](NC(=O)[C@H](CC(=O)OC)NC(=O)[C@@H](NC(=O)c1ccc2ccccc2n1)C(C)C)C(C)C)C(=O)COc1c(F)cccc1F (mixture of isomers) [TRP 601, 5-(2,6-difluoro-phenoxy)-3(R,S)-{2(S)-[2(S)-(3-methoxycarbonyl-2(S)-{3-methyl-2(S)-[(quinoline-2-carbonyl)-amino]butyrylamino}-propionylamino)-3-methyl-butyrylamino]-propionylamino}-4-oxo-pentanoic acid methyl ester] | selective caspase-2 inhibitor | 60 to 90 nM |
| selective caspase-2 inhibitor |  | COC(=O)CC(NC(=O)[C@H](C)NC(=O)[C@@H](NC(=O)[C@H](CC(=O)OC)NC(=O)[C@@H](NC(=O)c1ccc2ccccc2n1)C(C)C)C(C)C)C(=O)COc1c(F)c(F)cc(F)c1F (mixture of isomers) [TRP 701, 5-(2,3,5,6-tetrafluoro-phenoxy)-3(R,S)-{2(S)-[2(S)-(3-methoxycarbonyl-2(S)-{3-methyl-2(S)-[(quinoline-2-carbonyl)-amino]-butyrylamino}-propionylamino)-3-methyl-butyrylamino]-propionylamino}-4-oxo-pentanoic acid methyl ester] |  | 60 to 90 nM |
|  | inactive | CC(C)[C@H](NC(=O)c1ccc2ccccc2n1)C(=O)O [M3, 2-quinolinylcarbonyl-S-Valine] |  |  |
|  | inactive | quinoline-2-carbonyl-(S)-Val-(S)-Asp(OMe)-(S)-Val-(S)-Ala-(R,S)-Ala((R,S)-CH2OC6H3(2,6-F2)) [TRP 600] |  |  |
